According to patent publication US20170232059A1, “COMPOSITION COMPRISING OXYTOCIN” (PEP-TONIC MEDICAL AB, priority 2012, published 2017):
Where two headings read alike, the source gives them in different places. One block for each molecule: values may come before it. Starred links: 1 amine or outer side, 2 acyl side, 3 side chain; linkers in the order of their positions; H or OH if unused. Positions of bridges follow the written chain, without caps; N, C: chain ends. Residues, ends and D or L forms follow the SMILES beside them. X1 = O=C(CCC[*:2])[*:1]

Experiments:
[1] = in vivo; cited from earlier work
[2] = Skin penetration in Franz diffusion cells; type: in vitro ADME, pig; settings: for share that has penetrated the skin: of 200 IU (approx. 0.4 mg)
Procedure: Skin penetration was performed in Franz diffusion cells using dermatomed pig's ear skin (thickness approx. 500 μm and surface area 0.64 cm^2). The receptor volume of each cell was 6 mL and citrate buffer, pH 4.5 was used as receptor media. The temperature was maintained at 32° C. and the stirring speed in the receptor chamber was kept at 300 rpm. Sampling was done in triplicate at 24 hours intervals for 4 days, i.e. 24, 48, 72 and 96 h. 1.5 mL of receptor media was taken and replaced with the same volume of citrate buffer. Immediately after collection the samples were kept at −20° C.
A water solution of oxytocin was prepared in a concentration of 4000 IU/g, which corresponds to ca 6.8 mg/g. The solution was pH adjusted with a 50 mM citrate buffer to 4.0 in order to achieve reasonable chemical stability. The oxytocin solutions were added in excess, ca 1 g, on the donor side of the skin and covered to prevent evaporation.
The samples were thawed just prior analysis by HPLC, method M272-0. The limit of quantification (QL) is 12.5 ng/mL or 1.25 ng injected amount.

[3] = cited from earlier work
[4] = Bioavailability of vaginally administered oxytocin, study OXYPEP002; type: in vivo; settings: human; for level at 0.5 h / level at 1 h / level at 2 h: post-dose; for level at 0.5 h: read-out: Average blood oxytocin level, 30 min Visit 2; for level at 1 h: read-out: Average blood oxytocin level, 60 min Visit 2; for level at 2 h: read-out: Average blood oxytocin level, 120 min Visit 2; for AUC(0-t): read-out: AUC0-30 min
Procedure: The objective of the present analysis was to estimate the bioavailability of oxytocin following vaginal administration of 100 (170 μg) or 400 IU (680 μg) oxytocin vaginal gel using data from study OXYPEP002 (Clinical trial protocol OXYPEP002). The oxytocin vaginal gel is Vagitocin® gel.
Data from study OXYPEP002 was used for the analysis. Study OXYPEP002 was conducted with the primary objective to investigate the dose-relationship of topical Vagitocin on the vaginal mucosal membrane (Clinical trial protocol OXYPEP002). OXYPEP002 was a double-blind, randomized, placebo controlled trial, with a parallel group design. Vagitocin (oxytocin gel) in two different doses (100 IU and 400 IU) was administered topically once daily during 7 weeks. A placebo gel with the same composition was used as comparator. In total 64 patients were to be included in the study. At the baseline visit (visit 1), blood sampling for oxytocin analysis were drawn for the first 24 included subjects. This sample represents the true baseline oxytocin observation. For the same 24 subjects, blood sampling for oxytocin analysis were also drawn at visit 2 (2 weeks ±2 days) with sampling pre-dose and at 30 min, 60 min and 120 min post-dose. Only subjects that completed the full sampling schedule were included in the analysis. The calculations were based on average blood oxytocin measurements for each dose level and sampling time point (Table 2).
The systemic oxytocin exposure following vaginally administered oxytocin was assessed by calculating the area under the blood concentration versus time curve (AUC) according to the trapezoidal rule. The data from visit 2 were used where the pre-dose sample was assumed to represent a new baseline observation.
The blood concentration of oxytocin had not returned to the baseline observation at the lasts sampling time point (120 min post-dose).
The endogenous oxytocin level (AUCbaseline) was calculated and subtracted from the total AUC to achieve the oxytocin exposure following the vaginally administered dose (AUCvaginal).
The bioavailability was calculated according to equation 1. As no intravenous dose was administered in study OXYPEP002, AUCiv was calculated according to available information in the literature (De Groot A N et al. 1995, Amico J A et al. 1987, Dawood M Y et al. 1980) according to equation 2.

[5] = Blood plasma levels of oxytocin after intravaginal administration (Example 1) and AUC calculation; type: in vivo, human
Procedure: The first value is taken before the treatment of intravaginal oxytocin has started.
Blood samples were collected from 20 individuals before and repeatedly after administration of oxytocin during a 90 minute period. […] (FIG. 2).
The amount of oxytocin which is absorbed following intravaginal administration of oxytocin expressed as area under the curve (AUC) can be calculated using the trapezoid method according to standardized pharmacokinetic procedures as the clearance rat for oxytocin (CL) is known (70 L/H).
As oxytocin levels were only measured during a 90 minute period it had to be assumed that the concentration of oxytocin after 2 hours continues to fall according to the half-life of oxytocin.

[6] = six male subjects, intravenous 1 IU (De Groot 1995)

SMILES: CC[C@H](C)[C@@H]1NC(=O)[C@H](Cc2ccc(OC)cc2)NC(=O)CCCSC[C@@H](C(=O)N2CCC[C@H]2C(=O)N[C@@H](CC(C)C)C(=O)NCC(N)=O)NC(=O)[C@H](CC(N)=O)NC(=O)[C@H](CCC(N)=O)NC1=O [carbetocin] (Y(Me)IQNCPLG-NH2; linker N-5 via X1)
half-life relative to oxytocin [1]: about three times longer

share that has penetrated the skin ([2]; after 24 h): 0.1% | oxytocin penetrated into receptor ([2]; after 24 h, 4000 IU/g water solution): 0.6 µg | share that has penetrated the skin ([2]; after 96 h): ~1% | oxytocin detected in the receptor chamber ([2]; after 96 hours, 4000 IU/g citrate buffered water solution, pH 4.0, 32° C.): 4 µg | AUC ([4]; female, blood, 100 IU, 100 IU vaginal, read-out: AUC30-60 min): 0.0633 ng·h/mL | AUC ([4]; female, blood, 100 IU, 100 IU vaginal, read-out: AUC60-120 min): 0.11 ng·h/mL | AUC ([4]; female, blood, 100 IU, 100 IU vaginal, residual area alternative i, read-out: AUCresidual): 0.346 ng·h/mL | AUC ([4]; female, blood, 100 IU, 100 IU vaginal, residual area alternative i, read-out: AUCvaginal): 0.299 ng·h/mL | bioavailability ([4]; female, blood, 100 IU, 100 IU vaginal, residual area alternative i, read-out: Bioavailability): 12% | AUC ([4]; female, blood, 100 IU, 100 IU vaginal, residual area alternative ii, read-out: AUCresidual): 0.0322 ng·h/mL | AUC ([4]; female, blood, 100 IU, 100 IU vaginal, residual area alternative ii, read-out: AUCvaginal): 0.156 ng·h/mL | bioavailability ([4]; female, blood, 100 IU, 100 IU vaginal, residual area alternative ii, read-out: Bioavailability): 6.4% | AUC ([4]; female, blood, 400 IU, 400 IU vaginal, read-out: AUC30-60 min): 0.362 ng·h/mL | AUC ([4]; female, blood, 400 IU, 400 IU vaginal, read-out: AUC60-120 min): 0.504 ng·h/mL | AUC ([4]; female, blood, 400 IU, 400 IU vaginal, residual area alternative i, read-out: AUCresidual): 0.783 ng·h/mL | AUC ([4]; female, blood, 400 IU, 400 IU vaginal, residual area alternative i, read-out: AUCvaginal): 1.53 ng·h/mL | bioavailability ([4]; female, blood, 400 IU, 400 IU vaginal, residual area alternative i, read-out: Bioavailability): 16% | AUC ([4]; female, blood, 400 IU, 400 IU vaginal, residual area alternative ii, read-out: AUCresidual): 0.193 ng·h/mL | AUC ([4]; female, blood, 400 IU, 400 IU vaginal, residual area alternative ii, read-out: AUCvaginal): 1.1 ng·h/mL | bioavailability ([4]; female, blood, 400 IU, 400 IU vaginal, residual area alternative ii, read-out: Bioavailability): 11% | bioavailability ([4]; female, blood, vaginal, 100 and 400 IU, read-out: bioavailability, range over both dose levels and alternatives): 6.4 to 16% | level at 0.5 h ([4]; female, blood, 100 IU vaginal): 0.133 ng/mL | level at 1 h ([4]; female, blood, 100 IU vaginal): 0.12 ng/mL | level at 2 h ([4]; female, blood, 100 IU vaginal): 0.099 ng/mL | AUC(0-t) ([4]; female, blood, 100 IU vaginal): 0.0426 ng·h/mL | level at 0.5 h ([4]; female, blood, 400 IU vaginal): 0.816 ng/mL | level at 1 h ([4]; female, blood, 400 IU vaginal): 0.63 ng/mL | level at 2 h ([4]; female, blood, 400 IU vaginal): 0.378 ng/mL | AUC(0-t) ([4]; female, blood, 400 IU vaginal): 0.219 ng·h/mL | AUC ([4]; in vivo, iv, 1 ug, AUCiv, assumed intravenous dose of 1 μg and a CL of 70 L/h): 0.0143 ng·h/mL | fraction of the given dose absorbed ([5]; 100 IU intravaginal): 0.064 | plasma oxytocin levels at 15, 30, 60 and 90 minutes after administration ([5]; 100 and 400 IU intravaginal, FIG. 2): elevated in a pulse like fashion | fraction of the given dose absorbed ([5]; 400 IU intravaginal): 0.11 | plasma levels of oxytocin ([5]; following 100 and 400 IU intravaginal, 90 minute period): rose dose dependently | absorbed via the epithelial membrane into the blood stream ([5]; topical composition comprising a non-ionic cellulose ether): about 10%
SMILES: CC[C@H](C)[C@@H]1NC(=O)[C@H](Cc2ccc(O)cc2)NC(=O)[C@@H](N)CSSC[C@@H](C(=O)N2CCC[C@H]2C(=O)N[C@@H](CC(C)C)C(=O)NCC(N)=O)NC(=O)[C@H](CC(N)=O)NC(=O)[C@H](CCC(N)=O)NC1=O [oxytocin, Cys-Tyr-Ile-Gln-Asn-Cys-Pro-Leu-Gly-NH2]
CL ([3]; healthy male subjects (Amico 1987, Dawood 1980)): 70 to 90 L/h | clearance rate (CL) ([3]; known value used for AUC calculation): 70 L/H | terminal elimination half-life (t1/2) [3, 6]: 19.8 min | volume of distribution (V) [3, 6]: 33.2 L | total body CL ([3]; six male subjects, intravenous dose of 1 IU (1.7 μg), two-compartment model (De Groot 1995)): 67.1 L/h | half-life [1]: about 30 min | plasma oxytocin value obtained 10 hours after treatment ([5]; intravaginal, FIG. 2, vs before treatment): higher than those observed before treatment was started
